Tested on: DPP-IV
Assay: not given
Conditions: cited from earlier work

Structure (SMILES) | mode of DPP-IV inhibition | activity against DPP-IV (in words)
Oc1ccc(/C=C/c2cc(O)cc(O)c2)cc1 [resveratrol] | competitive | 
C[C@@H]1O[C@@H](O[C@H]2[C@H](Oc3cc(O)c4c(c3)O[C@H](c3ccc(O)cc3)CC4=O)O[C@H](CO)[C@@H](O)[C@@H]2O)[C@H](O)[C@H](O)[C@H]1O [naringin] |  | totally inactive
C[C@@H]1O[C@@H](OC[C@H]2O[C@@H](Oc3c(-c4ccc(O)c(O)c4)oc4cc(O)cc(O)c4c3=O)[C@H](O)[C@@H](O)[C@@H]2O)[C@H](O)[C@H](O)[C@H]1O [rutin] |  | totally inactive
CC1(C)O[C@H]2CC(=O)OC[C@]23[C@H]2CC[C@@]4(C)[C@H](c5ccoc5)OC(=O)[C@H]5O[C@]54[C@]2(C)C(=O)C[C@@H]13 [limonin] |  | totally inactive
O=c1cc(-c2ccc(O)c(O)c2)oc2cc(O)cc(O)c12 [luteolin] | noncompetitive | 
O.Oc1cc(O)c2c(c1)O[C@H](c1ccc(O)c(O)c1)[C@@H](O)C2 [catechin] |  | totally inactive
O=C(/C=C/c1ccc(O)c(O)c1)O[C@@H]1C[C@](O)(C(=O)O)C[C@@H](O)[C@H]1O [chlorogenic acid] |  | totally inactive
COc1ccc([C@@H]2CC(=O)c3c(O)cc(O[C@@H]4O[C@H](CO)[C@@H](O)[C@H](O)[C@H]4O[C@@H]4O[C@@H](C)[C@H](O)[C@@H](O)[C@H]4O)cc3O2)cc1O [neohesperidin] |  | totally inactive
COc1cc(/C=C/C(=O)CC(=O)/C=C/c2ccc(O)c(OC)c2)ccc1O [curcumin] | competitive | more active than resveratrol
COc1ccc([C@@H]2CC(=O)c3c(O)cc(O[C@@H]4O[C@H](CO[C@@H]5O[C@@H](C)[C@H](O)[C@@H](O)[C@H]5O)[C@@H](O)[C@H](O)[C@H]4O)cc3O2)cc1O [hesperidin] |  | totally inactive
O=C(O)c1ccc(O)c(O)c1 [protocatechuic acid] |  | totally inactive
O=c1c(-c2ccc(O)cc2)coc2cc(O[C@@H]3O[C@H](CO)[C@@H](O)[C@H](O)[C@H]3O)cc(O)c12 [genistin] |  | totally inactive
O=c1cc(-c2ccc(O)cc2)oc2cc(O)cc(O)c12 [apigenin] | noncompetitive | 
C[C@@H]1O[C@@H](OC[C@H]2O[C@@H](Oc3cc(O)c4c(c3)O[C@H](c3ccc(O)cc3)CC4=O)[C@H](O)[C@@H](O)[C@@H]2O)[C@H](O)[C@H](O)[C@H]1O [narirutin] |  | totally inactive
Oc1cc(O)c2c(c1)O[C@H](c1ccc(O)c(O)c1)[C@H](O)C2 [epicatechin] |  | totally inactive

Same assay, conditions: read-out: IC50, in vitro DPP-IV activity; cited from earlier work

Structure (SMILES) | IC50 [µM]
Oc1ccc(/C=C/c2cc(O)cc(O)c2)cc1 [resveratrol] | 0.0006 ± 0.0004
C[C@@H]1O[C@@H](OC[C@H]2O[C@@H](Oc3cc(O)c4c(c3)O[C@H](c3ccc(O)c(O)c3)CC4=O)[C@H](O)[C@@H](O)[C@@H]2O)[C@H](O)[C@H](O)[C@H]1O [eriocitrin] | 10.36 ± 0.09

Target: T1, purified human recombinant DPP-IV enzyme (Homo sapiens, UniProt P27487)
T1 construct: purchased Cayman Chemicals
Assay: In vitro DPP-IV activity assay (Gly-Pro-AMC fluorescence)
Format: biochemical
Conditions: tested 1–1000 µM
Experimental: The DPP-IV enzyme was provided by Cayman Chemicals (Ann Arbor, MI, USA), while the DPP-IV substrate (Gly-Pro-amido-4-methylcoumarin hydrobromide (Gly-Pro-AMC)) was from AnaSpec Inc. (Freemont, CA, USA). The experiments were carried out in triplicate in a half-volume 96-well solid plate (white) following conditions previously optimized. More details are available in the Supplementary Material.
To evaluate the DPP-IV inhibitory activity of both BUO and OMN, in vitro experiments were performed by using the purified human recombinant DPP-IV enzyme and H-Gly-Pro-AMC as a substrate. The reaction was monitored by measuring the fluorescence signals at 465 nm after excitation at 350 nm, deriving from the release of a free AMC group after the cleavage of H-Gly-Pro-AMC catalyzed by DPP-IV. […]
Tris-HCl, ethylendiaminetetraacetic acid (EDTA) and NaCl were from Sigma-Aldrich (St. Louis, MO, USA) The DPP-IV assay kit was from (Cayman Chemicals (Michigan, USA), while Gly- Pro-amido-4-methylcoumarin hydrobromide (Gly- Pro-AMC) was from AnaSpec (Freemont, CA, USA). […]
MA, USA). Tyrosol (≥98%), hydroxytyrosol (≥98%), and oleocanthal (≥95%) were from Merck Life Science S.r.l. (Milano, Italy); oleuropein (≥98%) was from Extrasynthese (Genay, France), whereas oleacin was from Phytolab
(Vestenbergsgreuth, Germany).
2.3. In Vitro DPP-IV Activity Assay
The DPP-IV enzyme was provided by Cayman Chemicals (Michigan, USA), while the DPP-IV substrate (H-Gly-Pro-AMC) was from AnaSpec Inc.
(Freemont, CA, USA). The experiments were carried out in triplicate in a half volume 96-well solid plate (white). […]
Subsequently, the samples were mixed and 50 μL of each reaction was transferred in each plate well. […] Fluorescence signals deriving from the release of free AMC were measured using a Synergy H1 fluorescence plate reader from BioTek (excitation/emission wavelength

T1 sequence (P27487 whole entry): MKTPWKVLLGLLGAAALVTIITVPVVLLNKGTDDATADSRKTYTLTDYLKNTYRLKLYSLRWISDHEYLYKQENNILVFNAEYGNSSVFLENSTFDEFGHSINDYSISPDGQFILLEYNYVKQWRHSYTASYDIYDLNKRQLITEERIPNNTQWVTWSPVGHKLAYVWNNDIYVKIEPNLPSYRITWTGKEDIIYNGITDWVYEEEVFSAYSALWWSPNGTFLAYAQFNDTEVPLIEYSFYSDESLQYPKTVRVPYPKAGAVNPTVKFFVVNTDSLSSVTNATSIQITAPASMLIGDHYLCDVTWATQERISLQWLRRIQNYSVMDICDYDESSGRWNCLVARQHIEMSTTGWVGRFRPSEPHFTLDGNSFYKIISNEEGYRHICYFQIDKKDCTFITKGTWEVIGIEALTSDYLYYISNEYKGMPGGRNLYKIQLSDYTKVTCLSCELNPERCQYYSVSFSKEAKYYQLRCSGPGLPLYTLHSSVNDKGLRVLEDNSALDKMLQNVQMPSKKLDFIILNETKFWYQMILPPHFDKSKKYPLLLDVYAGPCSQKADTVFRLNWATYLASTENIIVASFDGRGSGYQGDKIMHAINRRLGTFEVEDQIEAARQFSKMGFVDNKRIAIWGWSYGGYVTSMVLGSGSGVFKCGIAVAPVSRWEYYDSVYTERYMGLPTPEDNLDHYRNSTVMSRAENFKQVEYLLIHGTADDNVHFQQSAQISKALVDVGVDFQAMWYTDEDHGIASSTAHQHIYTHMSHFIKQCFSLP

IC50 [µM] | Structure (SMILES)
1110 ± 55.6 | OCCc1ccc(O)cc1 [tyrosol]
742 ± 35.7 | OCCc1ccc(O)c(O)c1 [hydroxytyrosol]
472 ± 21.7 | C/C=C1/[C@H](O[C@@H]2O[C@H](CO)[C@@H](O)[C@H](O)[C@H]2O)OC=C(C(=O)OC)[C@H]1CC(=O)OCCc1ccc(O)c(O)c1 [oleuropein]

From PMC8301156, “Phenolic Extracts from Extra Virgin Olive Oils Inhibit Dipeptidyl Peptidase IV Activity: In Vitro, Cellular, and In Silico Molecular Modeling Investigations” (Antioxidants, 2021)
